The subject of one experiment is CD4+ T cell. The experiment is described as follows: Inhibition of CD4+ T cell proliferation (CFSE, flow cytometry, anti-CD3/anti-CD28 stimulation). It is filed as cell-based. Particulars: Homo sapiens; 10 μM BTP2 control; anti-CD3 and anti-CD28 stimulated CD4+ T cell; 72 hours; read-out: Inhibition rate on T cell proliferation (%). As for the experimental part:
In order to determine the anti-immunological activity of inventive extract, following inhibition test of proliferation of T cell isolated from human blood was performed according to the procedure disclosed in the literature (J Immunol Jul. 15, 2002, 169 (2) 802-808).
In order to evaluate the anti-immunological activity of inventive extract, PBMC(peripheral blood mononuclear cell) and T cell which had been used in the various immunological analysis, were prepared from human blood using Fiicoll (GE17-5442-02, GE Healthcare) according to the previous literature (BIOPRESERVATION AND BIOBANKING, Volume 14, Number 5, 2016).
CD4+ T cell was carefully isolated from the isolated PBMC using by T cell isolation kit (130-096-533, Miltenyi biotec.) according to the manufacture's manual instruction.
The anti-immunological effect on T cell was evaluated by the inhibition effect on the proliferation of CD4+ T cell. […]
The T cell treated with test sample was incubated at 37° C. for 72 hours in 5% CO2 incubator (MCO-18AC, Panasonic) and then the cell was collected to be analyzed using Flow cytometry (BD LSRFortessa, BD Biosciences).
Background: A flow cytometer gives signals particle by particle.

Experiment [1] deals with IL-2 release in Jurkat T cell. The experiment in a line: Inhibition of IL-2 release in Jurkat T cell (ELISA, anti-CD3/anti-CD28 stimulation). Format: cell-based. Particulars: Homo sapiens; 10 μM BTP2 control; anti-CD3 and anti-CD28 stimulated Jurkat T cell; 72 hours; read-out: Inhibition rate on IL-2 release (%). How it is done:
In order to determine the anti-immunological activity of inventive extract, following inhibition test of cytokine release in Jukrat T cell was performed according to the procedure disclosed in the literature (ARTHRITIS & RHEUMATISM Vol. 52, No. 9, September 2005, pp 2730-2739).
ELISA (Enzyme-linked immunosorbent assay) was performed to determine the release of IL-2 in Jukrat T cell.
Jukrat T cell (TIB-152, American Type Culture Collection(ATCC)) was inoculated into 96 well plates (2×10^5 cells/well) and stimulated with anti-CD3 and anti-CD 28.
In order to determine the inhibition effect on the IL-2 release of T cell of inventive extract, the test samples, i.e., the extract disclosed in Comparative Examples and Examples, were inoculated into the well plate to be 100 μg/mL with the stimuli of anti-CD3 and anti-CD 28.
10 μM BTP2([N-{4-[3,5-bis(Trifluoromethyl)-1H-pyrazol-1-yl]phenyl}-4-methyl-1,2,3-thiadiazole-5-carboxamide], 203890-M, Calbiochem) was used as a control group. […]
The release of cytokines was analyzed by IL-2 specifically reacting ELISA kit (BGK60568, Peprotech Inc. NJ, USA) and the content of IL-2 was determined according to the instruction manual of manufacture.
(In an ELISA, binding on a coated surface is turned into a signal by an enzyme label.)

Take `Cc1nnsc1C(=O)Nc1ccc(-n2nc(C(F)(F)F)cc2C(F)(F)F)cc1` [BTP2, N-{4-[3,5-bis(Trifluoromethyl)-1H-pyrazol-1-yl]phenyl}-4-methyl-1,2,3-thiadiazole-5-carboxamide]: the values for the inhibition at 10 µM (in the experiment on CD4+ T cell; in experiment [1]) were 98.84 ± 0.0006% and 90.3 ± 0.552%, respectively.

Values taken from patent US20230381261A1, “A Purified Extract Isolated from Agrimonia Coreana Nakai Containing Abundant Amount of Active Ingredient, the Preparation Thereof, the Composition Comprising the Same as an Active Ingredient for Preventing or Treating Inflammation, Allergy and Atopic Dermatitis and the Use Thereof” (priority 2020, published 2023).
